Each compound was assayed against T1, mouse ENT-1 transporter (Mus musculus, UniProt Q9JIM1) (assay: Adenosine transport activity (ENT1, [3H]-adenosine uptake)). Conditions: stable cells expressing mouse ENT-1; [2,8-3H]-adenosine 6 nM, 20 min.
T1 construct: expressed in transfected cells
T1 sequence (Q9JIM1 1-460): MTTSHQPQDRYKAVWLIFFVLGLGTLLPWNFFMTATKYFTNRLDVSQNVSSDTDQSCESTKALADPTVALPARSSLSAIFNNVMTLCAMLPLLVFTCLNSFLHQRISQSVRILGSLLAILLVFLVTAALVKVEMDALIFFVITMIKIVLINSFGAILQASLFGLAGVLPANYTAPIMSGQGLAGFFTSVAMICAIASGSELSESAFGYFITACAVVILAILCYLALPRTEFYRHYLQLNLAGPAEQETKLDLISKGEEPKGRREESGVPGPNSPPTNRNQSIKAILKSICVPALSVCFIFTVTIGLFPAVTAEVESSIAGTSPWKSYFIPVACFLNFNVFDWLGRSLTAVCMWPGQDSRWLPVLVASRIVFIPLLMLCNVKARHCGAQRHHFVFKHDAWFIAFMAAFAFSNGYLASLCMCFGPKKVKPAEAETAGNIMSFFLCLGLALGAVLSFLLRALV
Format: cell-based
Experimental: To measure adenosine transport activity of ENT-1 mammalian cells, stable cells expressing the mouse ENT-1 transporter were plated on day 1 in 96-well culture plates at the density of 60,000 cells/well, in complete DMEM/F12 medium supplemented with glutamax, 10% FBS and 10 μg/ml puromycin. On day 2, the medium was aspirated and the cells were washed twice with uptake buffer (10 mM Hepes-Tris, pH 7.4 containing 150 mM NaCl, 1 mM CaCl2, 2.5 mM KCl, 2.5 mM MgSO4, 10 mM D-glucose) (UB). For inhibition experiments, cells were then incubated at RT with various concentrations of compounds with 1% DMSO final. Non-specific uptake was defined in the presence of 10 μM S-(4-Nitrobenzyl)-6-thioinosine (NBTI, Sigma Cat #N2255).
A solution containing [2,8-^3H]-adenosine 6 nM (40 Ci/mmol, American Radiolabeled chemicals Inc, Cat #ART 0287A) was then immediately added to the wells. The plates were then incubated for 20 min with gentle shaking and the reaction was stopped by aspiration of the mixture and washing (three times) with ice-cold UB. The cells were lysed by the addition of scintillation liquid, shaken 3 hours and the radioactivity in the cells was estimated using a microplates scintillation counter (TopCount NXT, Packard).

Point of comparison: `Cc1ncc(-c2ccc3c(c2)N(c2cccc(C(=O)NCC4CC4)n2)C(=O)C3(C)C)cn1` [Example 25, N-(Cyclopropylmethyl)-6-(3,3-dimethyl-6-(2-methylpyrimidin-5-yl)-2-oxoindolin-1-yl)picolinamide], IC50 49.9 nM. Against it:
- CNC(=O)c1nc(N2C(=O)C(C)(C)c3ccc(-c4cnc(C)nc4)cc32)ncc1C [Example 18, 2-(3,3-Dimethyl-6-(2-methylpyrimidin-5-yl)-2-oxoindolin-1-yl)-N,5-dimethylpyrimidine-4-carboxamide] — 1.6-fold higher, 78.4 nM
- Cc1ncc(-c2ccc3c(c2)N(c2ccnc(C(=O)N(C)C)n2)C(=O)C3(C)C)cn1 [Example 19, 4-(3,3-Dimethyl-6-(2-methylpyrimidin-5-yl)-2-oxoindolin-1-yl)-N,N-dimethylpyrimidine-2-carboxamide] — 15-fold higher, 725 nM
- CNC(=O)c1nccc(N2C(=O)C(C)(C)c3ccc(-c4cnc(C)nc4)cc32)n1 [Example 20, 4-(3,3-Dimethyl-6-(2-methylpyrimidin-5-yl)-2-oxoindolin-1-yl)-N-methylpyrimidine-2-carboxamide] — 2.4-fold higher, 120 nM
- Cc1ncc(-c2ccc3c(c2)N(c2ccc(C(=O)N(C)C)nn2)C(=O)C3(C)C)cn1 [Example 21, 6-(3,3-Dimethyl-6-(2-methylpyrimidin-5-yl)-2-oxoindolin-1-yl)-N,N-dimethylpyridazine-3-carboxamide] — 19-fold higher, 964 nM
- Cc1ncc(-c2ccc3c(c2)N(c2cccc(C(=O)N(C)C)n2)C(=O)C3(C)C)cn1 [Example 23, 6-(3,3-Dimethyl-6-(2-methylpyrimidin-5-yl)-2-oxoindolin-1-yl)-N,N-dimethylpicolinamide] — 7.5-fold higher, 374 nM
- Cc1ncc(-c2ccc3c(c2)N(c2cccc(C(N)=O)n2)C(=O)C3(C)C)cn1 [Example 26, 6-(3,3-Dimethyl-6-(2-methylpyrimidin-5-yl)-2-oxoindolin-1-yl)picolinamide] — 5.1-fold higher, 253 nM
- CNC(=O)c1nc(N2C(=O)C(C)(C)c3ccc(-c4cnc(C)nc4)cc32)ccc1C [Example 27, 6-(3,3-Dimethyl-6-(2-methylpyrimidin-5-yl)-2-oxoindolin-1-yl)-N,3-dimethylpicolinamide] — 3.4-fold lower, 14.8 nM
- Cc1ncc(-c2ccc3c(c2)N(c2ccc(C)c(C(=O)N(C)C)n2)C(=O)C3(C)C)cn1 [Example 28, 6-(3,3-Dimethyl-6-(2-methylpyrimidin-5-yl)-2-oxoindolin-1-yl)-N,N,3-trimethylpicolinamide] — 7-fold higher, 351 nM
- Cc1ncc(-c2ccc3c(c2)N(c2cncc(C(=O)N(C)C)c2)C(=O)C3(C)C)cn1 [Example 30, 5-(3,3-Dimethyl-6-(2-methylpyrimidin-5-yl)-2-oxoindolin-1-yl)-N,N-dimethylnicotinamide] — 12-fold higher, 608 nM
- Cc1ncc(-c2ccc3c(c2)N(c2cncc(C(=O)N4CCC4)c2)C(=O)C3(C)C)cn1 [Example 31, 1-(5-(Azetidine-1-carbonyl)pyridin-3-yl)-3,3-dimethyl-6-(2-methylpyrimidin-5-yl)indolin-2-one] — 4-fold higher, 202 nM
- Cc1ncc(-c2ccc3c(c2)N(c2cncc(C(=O)NCC(F)(F)F)c2)C(=O)C3(C)C)cn1 [Example 32, 5-(3,3-Dimethyl-6-(2-methylpyrimidin-5-yl)-2-oxoindolin-1-yl)-N-(2,2,2-trifluoroethyl)nicotinamide] — 9.6-fold higher, 477 nM
- CNC(=O)c1cncc(N2C(=O)C(C)(C)c3ccc(-c4cnc(C)nc4)cc32)c1 [Example 33, 5-(3,3-Dimethyl-6-(2-methylpyrimidin-5-yl)-2-oxoindolin-1-yl)-N-methylnicotinamide] — 11-fold higher, 559 nM
- CNC(=O)c1cc(N2C(=O)C(C)(C)c3ccc(-c4cnc(C)nc4)cc32)cc(C)n1 [Example 34, 4-(3,3-Dimethyl-6-(2-methylpyrimidin-5-yl)-2-oxoindolin-1-yl)-N,6-dimethylpicolinamide] — 23-fold higher, 1140 nM
- CNC(=O)c1cc(N2C(=O)C(C)(C)c3ccc(-c4cnc(C)nc4)cc32)ccn1 [Example 35, 4-(3,3-Dimethyl-6-(2-methylpyrimidin-5-yl)-2-oxoindolin-1-yl)-N-methylpicolinamide] — 11-fold higher, 534 nM
- Cc1ncc(-c2ccc3c(c2)N(c2cnc4c(c2)C(=O)N(C)C4)C(=O)C3(C)C)cn1 [Example 36, 3-(3,3-Dimethyl-6-(2-methylpyrimidin-5-yl)-2-oxoindolin-1-yl)-6-methyl-6,7-dihydro-5H-pyrrolo[3,4-b]pyridin-5-one] — 13-fold higher, 637 nM
- Cc1ncc(-c2ccc3c(c2)N(c2ccc4c(c2)C(=O)N(C)C4)C(=O)C3(C)C)cn1 [Example 37, 3,3-Dimethyl-1-(2-methyl-3-oxoisoindolin-5-yl)-6-(2-methylpyrimidin-5-yl)indolin-2-one] — 13-fold higher, 668 nM
- Cc1ncc(-c2ccc3c(c2)N(c2ccc4c(n2)C(=O)NC4(C)C)C(=O)C3(C)C)cn1 [Example 38, 2-(3,3-Dimethyl-6-(2-methylpyrimidin-5-yl)-2-oxoindolin-1-yl)-5,5-dimethyl-5H-pyrrolo[3,4-b]pyridin-7(6H)-one] — 4.8-fold higher, 239 nM
- Cc1ncc(-c2ccc3c(c2)N(c2cncc(C(=O)NC4CC4)n2)C(=O)C3(C)C)cn1 [Example 39, N-Cyclopropyl-6-(3,3-dimethyl-6-(2-methylpyrimidin-5-yl)-2-oxoindolin-1-yl)pyrazine-2-carboxamide] — 1.5-fold higher, 76.4 nM
- Cc1ncc(-c2ccc3c(c2)N(c2cncc(C(=O)NC4CC(F)(F)C4)n2)C(=O)C3(C)C)cn1 [Example 40, N-(3,3-Difluorocyclobutyl)-6-(3,3-dimethyl-6-(2-methylpyrimidin-5-yl)-2-oxoindolin-1-yl)pyrazine-2-carboxamide] — 6.5-fold higher, 323 nM
- Cc1ncc(-c2ccc3c(c2)N(c2cncc(C(=O)NC4CCC4)n2)C(=O)C3(C)C)cn1 [Example 42, N-Cyclobutyl-6-(3,3-dimethyl-6-(2-methylpyrimidin-5-yl)-2-oxoindolin-1-yl)pyrazine-2-carboxamide] — 2.6-fold higher, 129 nM
- Cc1ncc(-c2ccc3c(c2)N(c2cncc(C(=O)NC4COC4)n2)C(=O)C3(C)C)cn1 [Example 43, 6-(3,3-Dimethyl-6-(2-methylpyrimidin-5-yl)-2-oxoindolin-1-yl)-N-(oxetan-3-yl)pyrazine-2-carboxamide] — 6.4-fold higher, 319 nM
- Cc1ncc(-c2ccc3c(c2)N(c2cncc(C(=O)NC(C)(C)C)n2)C(=O)C3(C)C)cn1 [Example 44, N-(tert-Butyl)-6-(3,3-dimethyl-6-(2-methylpyrimidin-5-yl)-2-oxoindolin-1-yl)pyrazine-2-carboxamide] — 4.9-fold higher, 243 nM
- CNC(=O)c1nc(N2C(=O)C(C)(C)c3ccc(-c4cnc(C)nc4)cc32)cn1C [Example 45, 4-(3,3-Dimethyl-6-(2-methylpyrimidin-5-yl)-2-oxoindolin-1-yl)-N,1-dimethyl-1H-imidazole-2-carboxamide] — 2.4-fold lower, 21 nM
- Cc1ncc(-c2ccc3c(c2)N(c2cn(C)c(C(=O)N(C)C)n2)C(=O)C3(C)C)cn1 [Example 46, 4-(3,3-Dimethyl-6-(2-methylpyrimidin-5-yl)-2-oxoindolin-1-yl)-N,N,1-trimethyl-1H-imidazole-2-carboxamide] — within 1.5-fold, 46.9 nM

From patent US11066393B2, “Indolin-2-one derivatives” (Hoffmann-La Roche Inc., priority 2015, dated 2021)
